Reference: patent publication US8455499B2, “Alkyne antagonists of lysophosphatidic acid receptors” (Amira Pharmaceuticals, Inc., priority 2008, dated 2013)

What follows are compounds tested against T1, human LPA1 (Homo sapiens, UniProt Q92633) (assay: HLPA1 Ca Flux assay (LPA1 calcium flux assay)). Settings: CHO cells stably expressing human LPA1; stimulated by 10 nM LPA; intracellular Ca2+.
T1 construct: the full-length cDNA for human LPA1 was obtained by PCR of the reverse transcription reaction; expressed in transfected cells
Format: cell-based
Experimental: A 1.1 kb cDNA encoding the human LPA1 receptor was cloned from human lung. Human lung RNA (Clontech Laboratories, Inc. USA) was reverse transcribed using the RETROscript kit (Ambion, Inc.) and the full-length cDNA for human LPA1 was obtained by PCR of the reverse transcription reaction. The nucleotide sequence of the cloned human LPA1 was determined by sequencing and confirmed to be identical to the published human LPA1 sequence (An et al. Biochem. Biophys. Res. Commun. 231:619 (1997). The cDNA was cloned into the pCDNA5/FRT expression plasmid and transfected in CHO cells using lipofectamine 2000 (Invitrogen Corp., USA). Clones stably expressing human LPA1 were selected using hygromycin and identified as cells that show Ca-influx in response to LPA.
Human LPA1 or LPA3 expressing CHO cells are seeded at 20,000-45,000 cells per well in a 96-well poly-D-lysine coated plate one or two days before the assay. Prior to the assay, the cells are washed once with PBS and then cultured in serum-free media overnight. On the day of the assay, a calcium indicator dye (Calcium 4, Molecular Devices) in assay buffer (HBSS with Ca^2+ and Mg^2+ and containing 20 mM Hepes and 0.3% fatty-acid free human serum albumin) is added to each well and incubation continued for 1 hour at 37° C. 10 μl of test compounds in 2.5% DMSO are added to the cells and incubation continued at room temperature for 30 minutes. Cells are the stimulated by the addition of 10 nM LPA and intracellular Ca^2+ measured using the Flexstation 3 (Molecular Devices). IC50s are determined using Graphpad prism analysis of drug titration curves.

T1 sequence (Q92633 whole entry): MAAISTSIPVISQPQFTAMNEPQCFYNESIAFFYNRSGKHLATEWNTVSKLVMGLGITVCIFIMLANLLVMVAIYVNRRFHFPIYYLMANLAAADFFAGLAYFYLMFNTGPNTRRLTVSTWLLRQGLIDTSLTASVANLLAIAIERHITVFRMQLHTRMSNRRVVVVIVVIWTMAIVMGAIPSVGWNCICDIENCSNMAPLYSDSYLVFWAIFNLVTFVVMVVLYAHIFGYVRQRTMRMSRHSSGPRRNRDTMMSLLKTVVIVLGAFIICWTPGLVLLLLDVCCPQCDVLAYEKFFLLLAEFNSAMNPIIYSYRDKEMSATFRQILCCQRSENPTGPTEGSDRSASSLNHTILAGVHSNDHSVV

Compound	IC50
Cc1noc(-c2ccc(C#CCCC(=O)O)cc2)c1NC(=O)OC(C)c1ccccc1Cl (centres unmarked) [Compound 1-1, 5-(4-{4-[1-(2-Chloro-phenyl)-ethoxycarbonylamino]-3-methyl-isoxazol-5-yl}-phenyl)-pent-4-ynoic acid]	< 300 nM
Cc1noc(-c2ccc(C#CCCCC(=O)O)cc2)c1NC(=O)OC(C)c1ccccc1Cl (centres unmarked) [Compound 1-2, 6-(4-{4-[1-(2-Chloro-phenyl)-ethoxycarbonylamino]-3-methyl-isoxazol-5-yl}-phenyl)-hex-5-ynoic acid]	< 300 nM
Cc1noc(-c2ccc(C#CCCCCC(=O)O)cc2)c1NC(=O)OC(C)c1ccccc1Cl (centres unmarked) [Compound 1-3, 7-(4-{4-[1-(2-Chloro-phenyl)-ethoxycarbonylamino]-3-methyl-isoxazol-5-yl}-phenyl)-hept-6-ynoic acid]	< 300 nM
Cc1noc(-c2ccc(C#CCC(C)(C)C(=O)O)cc2)c1NC(=O)OC(C)c1ccccc1Cl (centres unmarked) [Compound 1-4, 5-(4-{4-[1-(2-Chloro-phenyl)-ethoxycarbonylamino]-3-methyl-isoxazol-5-yl}-phenyl)-2,2-dimethyl-pent-4-ynoic acid]	< 300 nM
Cc1noc(-c2ccc(C#CCn3ncc(C(=O)O)c3C(F)(F)F)cc2)c1NC(=O)OC(C)c1ccccc1Cl (centres unmarked) [Compound 2-1, 1-[3-(4-{4-[1-(2-Chloro-phenyl)-ethoxycarbonylamino]-3-methyl-isoxazol-5-yl}-phenyl)-prop-2-ynyl]-5-trifluoromethyl-1H-pyrazole-4-carboxylic acid]	> 1000 nM
Cc1noc(-c2ccc(C#CCn3cc(C(=O)O)cn3)cc2)c1NC(=O)OC(C)c1ccccc1Cl (centres unmarked) [Compound 2-2, 1-[3-(4-{4-[1-(2-Chloro-phenyl)-ethoxycarbonylamino]-3-methyl-isoxazol-5-yl}-phenyl)-prop-2-ynyl]-1H-pyrazole-4-carboxylic acid]	300 to 1000 nM
Cc1noc(-c2ccc(C#CCn3cnc(C(=O)O)c3)cc2)c1NC(=O)OC(C)c1ccccc1Cl (centres unmarked) [Compound 2-3, 1-[3-(4-{4-[1-(2-Chloro-phenyl)-ethoxycarbonylamino]-3-methyl-isoxazol-5-yl}-phenyl)-prop-2-ynyl]-1H-imidazole-4-carboxylic acid]	< 300 nM
Cc1noc(-c2ccc(C#CCn3cncn3)cc2)c1NC(=O)OC(C)c1ccccc1Cl (centres unmarked) [Compound 3-1]	< 300 nM
